Data reported in US7432397B2, “Imaging compounds” (Hammersmith Imanet Ltd., priority 2002, dated 2008).
Marks after values point to notes of the source that are not given here.

Experiment: Biodistribution of radioactivity in rat tissues after intravenous injection
Assay type: in vivo
Settings: i.v.; for Radioactivity in Plasma / Radioactivity in Whole blood: composite curve of 9 rats
Protocol: Sixteen adult male Sprague-Dawley rats (body weight 250-320 g: mean±SD=288±25 g) were used in 5 separate experiments. Each rat was injected with ˜13 MBq Compound 1, at a specific activity of […], via a previously catheterised tail vein. The associated stable compound was 0.5±0.2 nmol/kg. Discrete samples of arterial blood were collected from 9 of the rats via a previously catheterised tail artery.
Tissues were sampled post-mortem using an established protocol, as described in Hirani et al, Synapse 42:164-176 (2001). The radioactivity concentration data obtained at 12 times up to 90 min after radioligand injection were normalised for both amount injected and body weight, giving:—‘uptake units’=(cpm/g tissue)/(injected cpm/g body weight).

CSc1cccc(N([11CH3])C(=N)Nc2cc(SC)ccc2Cl)c1 [Compound 1, (N-(2-chloro-5-(methylthio)phenyl)-N′-(3-methylthio)phenyl)-N′-[N-methyl-^11C]-methylguanidine]
Radioactivity in Entorhinal cortex (30 min): 1.31 Uptake Units | Radioactivity in Fat (30 min): 0.71 Uptake Units | Radioactivity in Heart (ventricle) (30 min): 0.99 Uptake Units | Radioactivity in Hippocampus (30 min): 1.32 Uptake Units | Radioactivity in Hypothalamus (30 min): 1.22 Uptake Units | Radioactivity in Inferior collicull (30 min): 1.16 Uptake Units | Radioactivity in Kidney (30 min): 2.85 Uptake Units | Radioactivity in Large intestine (30 min): 1.11 Uptake Units | Radioactivity in Lge. intestine content (30 min): 0.36 Uptake Units | Radioactivity in Liver (30 min): 7.84 Uptake Units | Radioactivity in Lung (30 min): 7.48 Uptake Units | Radioactivity in Medulla with Pons (30 min): 1.26 Uptake Units | Radioactivity in Olfactory bulbs (30 min): 1.10 Uptake Units | Radioactivity in Olfactory tubercles (30 min): 1.24 Uptake Units | Radioactivity in Prefrontal cortex (30 min): 1.51 Uptake Units | Radioactivity in Skeletal muscle (30 min): 0.68 Uptake Units | Radioactivity in Skin (30 min): 0.75 Uptake Units | Radioactivity in Sm. intestine content (30 min): 7.14 Uptake Units | Radioactivity in Small intestine (30 min): 2.30 Uptake Units | Radioactivity in Somatosensory cortex (30 min): 1.37 Uptake Units | Radioactivity in Spleen (30 min): 4.75 Uptake Units | Radioactivity in Stomach (30 min): 1.07 Uptake Units | Radioactivity in Striata (30 min): 1.32 Uptake Units | Radioactivity in Superior collicull (30 min): 1.19 Uptake Units | Radioactivity in Testis (30 min): 0.76 Uptake Units | Radioactivity in Thalamus (30 min): 1.43 Uptake Units | Radioactivity in Urine (30 min): 37.5 Uptake Units | Radioactivity in Visual cortex (30 min): 1.55 Uptake Units | Radioactivity in Plasma (30 min): 0.18 Uptake Units | Radioactivity in Whole blood (30 min): 0.19 Uptake Units | Radioactivity in Cerebellum (40 min): 0.62 Uptake Units | Radioactivity in Entorhinal cortex (40 min): 0.85 Uptake Units | Radioactivity in Fat (40 min): 0.45 Uptake Units | Radioactivity in Heart (ventricle) (40 min): 0.63 Uptake Units | Radioactivity in Hippocampus (40 min): 0.86 Uptake Units | Radioactivity in Hypothalamus (40 min): 0.76 Uptake Units | Radioactivity in Inferior collicull (40 min): 0.64 Uptake Units | Radioactivity in Kidney (40 min): 1.79 Uptake Units | Radioactivity in Large intestine (40 min): 0.66 Uptake Units | Radioactivity in Lge. intestine content (40 min): 0.23 Uptake Units | Radioactivity in Liver (40 min): 5.76 Uptake Units | Radioactivity in Lung (40 min): 3.99 Uptake Units | Radioactivity in Medulla with Pons (40 min): 0.80 Uptake Units | Radioactivity in Olfactory bulbs (40 min): 0.64 Uptake Units | Radioactivity in Olfactory tubercles (40 min): 0.72 Uptake Units | Radioactivity in Prefrontal cortex (40 min): 0.93 Uptake Units | Radioactivity in Skeletal muscle (40 min): 0.61 Uptake Units | Radioactivity in Skin (40 min): 0.39 Uptake Units | Radioactivity in Sm. intestine content (40 min): 3.68 Uptake Units | Radioactivity in Small intestine (40 min): 1.09 Uptake Units | Radioactivity in Somatosensory cortex (40 min): 0.88 Uptake Units | Radioactivity in Spleen (40 min): 2.83 Uptake Units | Radioactivity in Stomach (40 min): 0.45 Uptake Units | Radioactivity in Striata (40 min): 0.84 Uptake Units | Radioactivity in Superior collicull (40 min): 0.65 Uptake Units | Radioactivity in Testis (40 min): 0.74 Uptake Units | Radioactivity in Thalamus (40 min): 0.92 Uptake Units | Radioactivity in Urine (40 min): 27.5 Uptake Units | Radioactivity in Visual cortex (40 min): 0.89 Uptake Units | Radioactivity in Plasma (40 min): 0.16 Uptake Units | Radioactivity in Whole blood (40 min): 0.16 Uptake Units | Radioactivity in Cerebellum (50 min): 0.55 Uptake Units | Radioactivity in Entorhinal cortex (50 min): 0.75 Uptake Units | Radioactivity in Fat (50 min): 0.49 Uptake Units | Radioactivity in Heart (ventricle) (50 min): 0.50 Uptake Units | Radioactivity in Hippocampus (50 min): 0.73 Uptake Units | Radioactivity in Hypothalamus (50 min): 0.61 Uptake Units | Radioactivity in Inferior collicull (50 min): 0.56 Uptake Units | Radioactivity in Kidney (50 min): 1.68 Uptake Units | Radioactivity in Large intestine (50 min): 0.76 Uptake Units | Radioactivity in Lge. intestine content (50 min): 0.35 Uptake Units | Radioactivity in Liver (50 min): 5.01 Uptake Units | Radioactivity in Lung (50 min): 5.30 Uptake Units | Radioactivity in Medulla with Pons (50 min): 0.70 Uptake Units | Radioactivity in Olfactory bulbs (50 min): 0.58 Uptake Units | Radioactivity in Olfactory tubercles (50 min): 0.65 Uptake Units | Radioactivity in Prefrontal cortex (50 min): 0.80 Uptake Units | Radioactivity in Skeletal muscle (50 min): 0.61 Uptake Units | Radioactivity in Skin (50 min): 0.52 Uptake Units | Radioactivity in Sm. intestine content (50 min): 4.03 Uptake Units | Radioactivity in Small intestine (50 min): 1.19 Uptake Units | Radioactivity in Somatosensory cortex (50 min): 0.71 Uptake Units | Radioactivity in Spleen (50 min): 2.95 Uptake Units | Radioactivity in Stomach (50 min): 0.32 Uptake Units | Radioactivity in Striata (50 min): 0.69 Uptake Units | Radioactivity in Superior collicull (50 min): 0.57 Uptake Units | Radioactivity in Testis (50 min): 0.69 Uptake Units | Radioactivity in Thalamus (50 min): 0.85 Uptake Units | Radioactivity in Urine (50 min): 84.5 Uptake Units | Radioactivity in Visual cortex (50 min): 0.72 Uptake Units | Radioactivity in Plasma (50 min): 0.17 Uptake Units | Radioactivity in Whole blood (50 min): 0.16 Uptake Units | Radioactivity in Cerebellum (60 min): 0.54* Uptake Units
